# Test: Antibiotic aerosol delivery with nebulizer at distal Y position, three nebulizers
# Set-up: unit not given here
# Conditions: T-BIRD, continuous
# Source text: The inhaled mass filter 1040 allows one to do accurate measurements of what delivery amounts are actually reaching the patient 10.
# In a second experiment, the arrangements of FIGS. 15A and 15B were used with a single commercially available ventilator (the T-Bird ventilator) together with three different commercially available nebulizers. The nebulizer actuation was examined in the “continuous” mode. The humidity feature for these ventilators was examined by performing the test both when the feature is active and when it is off. An expiratory line filter was also used (not shown). Clearly, the Portex nebulizer performed poorly under these conditions.
# [1] = AEROGEN nebulizer, humidity OFF
# [2] = AEROTECH nebulizer, humidity OFF
# [3] = AEROTECH nebulizer, humidity ON
Molecule,MMAD [1],"MMAD (AEROGEN nebulizer, humidity ON)",MMAD [2],MMAD [3],"MMAD (PORTEX nebulizer, humidity ON)"
"CN[C@H](CC(C)C)C(=O)N[C@H]1C(=O)N[C@@H](CC(N)=O)C(=O)N[C@H]2C(=O)N[C@H]3C(=O)N[C@H](C(=O)N[C@H](C(=O)O)c4cc(O)cc(O)c4-c4cc3ccc4O)[C@H](O)c3ccc(c(Cl)c3)Oc3cc2cc(c3O[C@@H]2O[C@H](CO)[C@@H](O)[C@H](O)[C@H]2O[C@H]2C[C@](C)(N)[C@H](O)[C@H](C)O2)Oc2ccc(cc2Cl)[C@H]1O [VANCOMYCIN, vancomycin]",2,2,1.7,1.1,1.1
gentamicin,1.1,1.2,0.9,1.3,0.9
